Laboratory results taken from US11191874B2, “Biomaterials for neuronal implants and use of said biomaterials in the diagnosis and therapy of neuronal diseases” (Albert-Ludwigs-U[…], priority 2014, dated 2021).
“Also recorded” adds a separate entry of the source. Where no end group is shown, it is not given here.

Legend:
[1] = system: rat hippocampal neurons and astrocytes; experiment: Neuron-astrocyte association in mixed primary hippocampal cultures; type: cell-based; settings: GsMTx4 5 μM, smooth glass substrates
Text: The inventors therefore evaluated the response of mixed primary cultures of rat hippocampal neurons and astrocytes to the different roughness regimes.
An also remarkable finding was that nanoroughness appeared to modulate the relationship, and dependency of neurons on astrocytes. […] After 5 days, the percent neurons that were associated with astrocytes on the 32 nm Rq surface was around 15%, which was 1.5-2 fold lower than those on other Rq's, which ranged from 20-40%, and 6 fold lower than that on the smooth glass substrate (FIG. 4c). That is, in comparison to the other Rq's, over twice as many neurons on 32 nm Rq surface were surviving independently of astrocytes. At 6 weeks however, the percent of neurons that were surviving independently of astrocytes on the 32 nm Rq was over 6 fold greater in comparison to the other Rq's. While over 90% of neurons were associated with astrocytes on other roughnesses, only 15% of neurons were associated with astrocytes on 32 nm Rq (FIG. 4d). […]
Cell density/composition analysis: In order to analyze the cell density and composition of mixed neuron/astrocyte cultures on the different substrates at the end of the experiments, MAP-2^+, GFAP^+ and Tuj-1^+ cells were counted in 4 separately isolated cultures in 10 random image sections and on two different substrates of each isolated culture.

hippocampal neurons = experiment: Calcium sensitive FURA-2 imaging of hippocampal neurons after KCl depolarization; type: cell-based, rat; settings: GsMTx4, KCl depolarization
Protocol: Calcium sensitive imaging: Intracellular calcium levels were measured with the cell permeable probe FURA-2-acetoxymethyl ester (Invitrogen Life Technologies GmbH). Cells were exposed to 5 μM FURA-2-AMin DMSO (final concentration of 0.2%) for 45 minutes in a humidified incubator at 37° C. Increase in intracellular calcium levels following depolarization with 50 mM KCl was analyzed by the change in the absorption and emission spectra of FURA-2 upon Ca^2+ binding using a custom-built perfusion chamber mounted to a Zeiss Observer Z1 and the ZEN blue software (Zeiss AG, Germany).The rate of intracellular Ca^2+ increase was calculated as the slope of the linear portion of the increase in FURA-2 intensity.

GMB tumor spheroids = experiment: U-87 spheroid Matrigel invasion assay; type: cell-based; settings: GsMTx4 in culture media, 3D matrix
Protocol: Spheroids (which resemble a GBM tumor in vitro) are formed via the hanging drop procedure. For this, cells were seeded into a carboxymethylcellulose solution (with very high viscosity) and pipetted on the inner side of the lid of a cell culture plate. After reversing the lid and putting it back onto the cell culture plate, the cells are hanging in a drop of carboxymethylcellulose. Because of the high viscosity of the media and no possibility to attach, the cells form spheroids. […] During incubation cells start migrating out of the spheroid and invading the 3D matrix. The higher the invasive potential of the cells, the more they will invade the 3D matrix.

GsMTx4 (GCLEFWWKCNPNDDKCCRPKLKCSKLFKLCNFSF; ends and bridges not checked; cysteine pairing not given here)
neuron-astrocyte coupling upon inhibition of Piezo-1 (FAM38A) [1]: neurons decouple from astrocytes even on smooth glass substrates; also recorded: decoupling of hippocampal neurons from astrocytes
FURA-2 intensity profile and rate of calcium influx upon depolarization, smooth glass versus Rq=32 nm, upon inhibition of Piezo-1 (hippocampal neurons): is lost upon inhibition of Piezo-1; also recorded: identical
formation of sprouts from tumor spheroids (invasiveness) (GMB tumor spheroids): significantly reduced; also recorded: less invasive potential
